Data reported in patent US20050197406A1, “Method of treatment of lung cancer” (priority 1999, published 2005).
Structures can show the parent of a compound that is named as a salt.

Tests used:
60 cancer cell lines [1] = conditions: FDA approved chemotherapeutic agents, publicly available data; cited from earlier work
[2] = test system: A549 human lung cancer cells; test: A549 human lung cancer xenograft model, β-lapachone alone or with gemcitabine; type: in vivo; conditions: for toxicity: female, athymic nude (Ncr), mouse, in vivo, ip; for retardation of tumor growth, monotherapy: β-lapachone 60 mg/kg or gemcitabine 120 mg/kg alone, e.g. days 24 and 27
Protocol: Mice receive a total of eight treatments. Mean tumor volume is analyzed; data points in FIG. 4 represent the arithmetic mean +/−SEM of five tumors.

60 cancer cell lines [3] = test: NCI in vitro screen of 60 cancer cell lines (sulforhodamine B assay); type: cell-based; conditions: Homo sapiens; mean across all cells of NCI60; read-out: LC50 (log 10 molar concentration causing 50% lethality), mean across all cells (converted)
Protocol: The NCI assays are performed under standardized conditions not designed to mimic the conditions of dosing and use the sulforhodamine B assay as the endpoint. […] When compared to many FDA approved chemotherapeutic agents for common cancer types with publicly available data, none of the compared approved drugs exceed the mean of β-lapachone across all cells and only mitoxantrone equals it. FIG. 2.

[4] = test system: A549 human lung cancer cells; type: in vivo; conditions: 60 mg/kg intraperitoneally every three days, 8 treatments
Protocol: The animals are randomized into three groups of seven animals per group. […] Mean tumor volume is then analyzed.

normal cells = test: In vitro experiments using cell lines of various tissue origins (toxicity to normal cells); type: cell-based
[5] = ip every three days, eight treatments

In the case of O=C1c2c(O)ccc(O)c2C(=O)c2c(NCCNCCO)ccc(NCCNCCO)c21 [mitoxantrone], the “mean LC50 across all cells compared with that of β-lapachone” value (60 cancer cell lines [1]) is listed as “equals it”.

With Nc1ccn([C@@H]2O[C@H](CO)[C@@H](O)C2(F)F)c(=O)n1 [gemcitabine, 2′-deoxy-2′,2′-difluorocytidine monohydrochloride (β-isomer), reference compound] the toxicity [2] was “No significant toxicity” and the “retardation of tumor growth, monotherapy” value [2, 5] was “retarded tumor growth to a similar extent”.

In the case of CC1(C)CCC2=C(O1)c1ccccc1C(=O)C2=O [β-lapachone, 3,4-dihydro-2,2-dimethyl-2H-naphtho[1,2-b]pyran-5,6-dione], the CC50 (60 cancer cell lines [3]) is reported as 8.51 µM, the toxicity [2] is reported as “No significant toxicity” and the “retardation of tumor growth, monotherapy” value [2, 5] is reported as “retarded tumor growth to a similar extent”. The “retardation of tumor growth, 60 mg/kg compared with 40 mg/kg” value ([2]; β-lapachone in 40% HPBCD, ip every three days, eight treatments) was “more effective at retarding tumor growth”, the “reduction of mean tumor volume” value [4] was “approximately 50%” and the “toxicity to normal cells” value (normal cells) was “relatively non-toxic to normal cells”.
